How the values were obtained:
[1] = test system: cold model of immunocompromised rats; assay: Cold model of immunocompromised rats induced by cyclophosphamide: body temperature; format: in vivo, rat; settings: SD rats cold model, Sample-1 150, Sample-2 75, Sample-3/-4/-5 150, Sample-6 30 mg/kg
Text: (§1) […] were divided into 20 cages, 5 SD rats in each cage, 2 cages in each group, 1 cage for male and female respectively. After 7 days of adaptive growth, 70 rats were used for drug administration evaluation and the construction of rat upper respiratory tract infection model, and the remaining 10 rats were used for normal control. During the whole experiment, the animals were looked after and treated in strict accordance with the animal ethics law.
(§2) After the adaptive growth, the drug was given by gavage once a day for each SD rat. The Placebo group and the normal control group were given the same volume of drug solution (i.e. normal saline) every day for 4 weeks, i.e. 28 days.
(§3) 1) On the 14th day after gavage administration, rats in the model group were intraperitoneally injected with cyclophosphamide for 3 consecutive days and strengthened once on the 20th day to prepare the immunosuppressive model.
(§4) 2) On the 21st day, after the rats were placed in a low temperature environment overnight (4° C.), the cold symptoms such as burnout, decreased food intake and increased nasal secretion were found, which was regarded as successful modeling.
(§5) 3) During the period of normal administration, the administration was ended on the 28th day, and the rats were killed.
(§6) The body weight of rats was measured once a week. During the administration, the general conditions, behavioral characteristics and death status of rats in each group, such as appetite, hair color and body posture, were observed. Nasal secretion and body temperature were observed ever day.

[2] = Cold model of immunocompromised rats induced by cyclophosphamide: body weight; format: in vivo, rat; settings: SD rats, Sample-1 150, Sample-2 75, Sample-3/-4/-5 150, Sample-6 30 mg/kg
Text: as §1, §2, §3, §4, §5, §6

[3] = test system: IL-1β, IFN-γ, IgG, IgM, sIgA; assay: Cold model rats: cytokines in serum and saliva by ELISA; format: in vivo, rat; settings: SD rats cold model, gavage 28 days, Sample-1 150, Sample-2 75, Sample-3/-4/-5 150, Sample-6 30 mg/kg
Procedure: 1) On the second day after the last administration, the rats were anesthetized by intraperitoneal injection of 10% chloral hydrate with the anesthetic dosage of 0.35 ml/100 g;
2) The abdominal cavity was opened, and a 5 ml sterile syringe was inserted into the abdominal vein of the rats, and the venous blood was drawn:
(§7) 3) The drawn venous blood was put into a heparin tube, mixed well, and left in a chromatography freezer at 4° C. overnight.
(§8) 4) After centrifugation at 14000 rpm at 4° C. for 15 minutes, the supernatant was taken and stored at −80° C. for use.
2) SD rats were fixed in the supine and low head position, sterile cotton swabs were inserted into the upper respiratory tract of rats, dipped in rat saliva, and immediately placed in precooled normal saline and stored at −80° C. for use.
The final serum was used for IL-1β, IL-6, IL-12, IFN-γ, IgG, IgM, and saliva was used for the determination of sIgA. The determination steps were as follows:
(§9) 1) taking out the ELISA kit from the refrigerator and balancing it at room temperature for 20 min;
(§10) 3) after sealing the film with a film sealing plate, placing it in a 37° C. incubator for incubation for 30 min;
4) discarding the liquid in the wells, gently drying it, and adding 50 μL biotin labeled antibody working solution to each well, and incubating in a 37° C. incubator for 30 min;
(§11) 5) carefully removing the sealing film, pouring out the liquid in the wells, gently spin drying it, adding washing liquid into each well, standing at room temperature for 30 seconds and then pouring it out, repeating this operation for 5 times and gently patting it dry;
(§12) 6) adding 50 μL horseradish peroxidase labeled avidin working solution to each well, and incubating in a 37° C. incubator for 30 min;
(§13) 7) pouring out the liquid in the wells, gently spin drying it, adding washing liquid into each well, standing at room temperature for 30 seconds and then pouring it out, repeating this operation for 5 times and gently patting it dry; and
8) adding […] color developing solution to each well in turn, and developing color in a 37° C. incubator without light for 15 min;
9) adding 50 μL termination solution to each well to terminate the reaction, then zeroing the blank wells and measure the absorbance (OD value) of each well at 450 nm wavelength, where the determination shall be carried out within 15 min after the termination solution is added.

[4] = test system: guinea pig model with allergic rhinitis; assay: Allergic rhinitis experiment: number and time points of deaths in each group; format: in vivo; settings: surviving guinea pigs of 10 in group; D1 41, D2 45, D3 116, D4 116, D5 58, D6 116, D7 233, D8 16 mg/kg
Text: 100 guinea pigs were divided into 20 cages with 5 guinea pigs in each cage. After 7 days of adaptive growth without abnormalities, 90 guinea pigs were used for the construction and induction of allergic rhinitis model, and the remaining 10 guinea pigs were used for normal control. During the whole experiment, the animals were looked after and treated in strict accordance with the animal ethics law.
(§14) On the day of modeling, drugs were given by gavage. Each guinea pig was given once a day, and the Placebo group was given equal volume of drug solution every day for 4 weeks, i.e. 28 days.

[5] = test system: eosinophils in nasal lavage solution; assay: Counting of eosinophils in nasal lavage solution; format: in vivo, guinea pig; settings: guinea pigs
Procedure: (§15) 1) After scoring on the second day after the last administration, guinea pigs were anesthetized by intraperitoneal injection of 10% chloral hydrate with the anesthetic dosage of 0.35 ml/100 g;
2) The guinea pig was fixed in a supine and low head position, the normal saline was slowly dropped into one nasal cavity at the rate of 1 ml/min, and the contralateral nasal cavity was continuously pumped with low negative pressure;
3) A small amount of the recovered lavage solution was taken immediately and put into a leukocyte counting plate to count the total number of leukocytes;
4) The remaining lavage solution was added with EDTA ([…]) and centrifuged at 14000 rpm at 4° C. for 15 minutes. And the supernatant was stored at −80° C. for use.

[6] = test system: histamine, IgE, IL-4, IFN-γ, thromboxane B2 and leukotriene; assay: Final plasma cytokines of guinea pigs by ELISA; format: in vivo, guinea pig
Procedure: as §15
2) The abdominal cavity was opened, and a 5 ml sterile syringe was inserted into the abdominal vein of the guinea pig, and the venous blood was drawn;
as §7, §8
1.6 The expression levels of cytokines in guinea pig serum and nasal lavage solution were detected by ELISA. The final serum and nasal lavage solution were taken for the determination of histamine, IgE, IL-4, IFN-γ, thromboxane B2 and leukotriene.
as §9, §10
4) discarding the liquid in the wells, gently spin drying it, and adding 50 μL biotin labeled antibody working solution to each well, and incubating in a 37° C. incubator for 30 min;
as §11, §12, §13
8) adding 100 μL color developing solution to each well in turn, and developing color in a 37° C. incubator without light for […];
9) adding […] termination solution to each well to terminate the reaction, then zeroing the blank wells and measure the absorbance (OD value) of each well at 450 nm wavelength, where the determination shall be carried out within 15 min after the termination solution is added.

[7] = test system: nasal mucosa; assay: HE staining of final nasal mucosa of guinea pigs; format: in vivo, guinea pig; settings: gavage 28 days, D1 41, D2 45, D3 116, D4 116, D5 58, D6 116, D7 233, D8 16 mg/kg
Procedure: as §15
2) After peeling off the nasal skin, the maxilla together with the nasal cavity were removed, and the bilateral nasal cavities were completely separated from the middle incisors;
3) The nasal mucosa was carefully removed and fixed with 4% paraformaldehyde for HE staining;
4) All the HE stained pathological sections were observed under the light microscope.
The mucosal tissues fixed in 4% glutaraldehyde solution were taken out and made into 5 μm thick paraffin sections for HE staining.
1) 60%, 70%, 80% and 90% gradient ethanol of the fixed sample were used to dehydrate for 8 h respectively;
2) 100% ethanol I and II were used to dehydrated for 1 h respectively;
3) The xylene I and II were used to make the specimens transparent for 15 min respectively;
4) The specimens were soaked in liquid paraffin and placed in a 65° C. oven for 2 h;
5) The soaked paraffin specimens were taken out and embedded in paraffin;
6) The paraffin was cut into 5 μm thick sections and subjected to HE staining.
1) Xylene I and II for 15 min respectively;
2) Gradient ethanol hydration to distilled water;
3) Hematoxylin staining for 5 min;
4) Differentiation with 1% hydrochloric acid and ethanol for 1 min; […]

[8] = test system: guinea pig model with allergic rhinitis; assay: Allergic rhinitis experiment: symptom observation (nose scratching, sneezing, symptom score) after OVA nasal instillation; format: in vivo; settings: guinea pigs, gavage 28 days, D1 41, D2 45, D3 116, D4 116, D5 58, D6 116, D7 233, D8 16 mg/kg
Text: as §14

[9] = final plasma, gavage 28 days, D1 41, D2 45, D3 116, D4 116, D5 58, D6 116, D7 233, D8 16 mg/kg

In the case of `O=C1O[C@H]([C@@H](O)CO)C(O)=C1O` [Sample-6, VC], the “temperature Day 15” value ([1]; Day 15) is reported as 36.84 ± 0.22, the “temperature Day 16” value ([1]; Day 16) is reported as 36.78 ± 0.48 and the “temperature Day 17” value ([1]; Day 17) is reported as 36.9 ± 0.33. For the same compound, the “temperature Day 18” value ([1]; Day 18) was 36.6 ± 0.19, the “temperature Day 19” value ([1]; Day 19) was 36.63 ± 0.28 and the “temperature Day 20” value ([1]; Day 20) was 36.69 ± 0.22. For the same compound, the “temperature Day 21” value ([1]; Day 21) was 36.41 ± 0.3, the “temperature Day 22” value ([1]; Day 22) was 37.89 ± 0.53 and the “temperature Day 23” value ([1]; Day 23) was 38.23 ± 0.64. The “temperature Day 24” value ([1]; Day 24) was 38.11 ± 0.56, the “temperature Day 25” value ([1]; Day 25) was 37.87 ± 0.4 and the “temperature Day 26” value ([1]; Day 26) was 37.41 ± 0.4. For the same compound, the “temperature Day 27” value ([1]; Day 27) was 37.32 ± 0.28, the “temperature Day 28” value ([1]; Day 28) was 37.62 ± 0.31 and the “weight week 1” value ([2]; week 1) was 200.37 ± 8.23 g. For the same compound, the “weight week 2” value ([2]; week 2) was 217.99 ± 12.26 g, the “weight week 3” value ([2]; week 3) was 193.64 ± 12.51 g and the “weight week 4” value ([2]; week 4) was 173.58 ± 7.48 g. The “weight week 0” value ([2]; gavage once a day 28 days, week 0) was 184.61 ± 7.84 g, the “serum IFN-γ content” value ([3]; final serum) was 170.49 ± 21.44 pg/mL and the “serum IL-β content” value ([3]; final serum) was 100.12 ± 27.51 pg/mL. For the same compound, the “serum IgG content” value ([3]; final serum) was 606.77 ± 259.06 µg/mL, the “serum IgM content” value ([3]; final serum) was 177.1 ± 35.59 µg/mL and the “saliva sIgA content” value ([3]; upper respiratory tract saliva) was 13.9 ± 4.08 µg/mL.
With `CCOC(=O)N1CCC(=C2c3ccc(Cl)cc3CCc3cccnc32)CC1` [D8, Loratadine] the Final number [4] was 8, the “Number after enhanced sensitization” value [4] was 8 and the “Number after nasal instillation” value [4] was 8. The “number of eosinophils in nasal lavage solution decreased compared with the model group” value ([5]; D1 41, D2 45, D3 116, D4 116, D5 58, D6 116, D7 233, D8 16 mg/kg) was 52.2%, the “number of eosinophils in nasal lavage solution compared with the model group” value ([5]; D8 16 mg/kg, p<0.01) was “decreased significantly” and the Number of eosinophils ([5]; nasal lavage solution, gavage 28 days, D1 41, D2 45, D3 116, D4 116, D5 58, D6 116, D7 233, D8 16 mg/kg) was 3.50 ± 1.12 PCs./ml. For the same compound, the Histamine [6, 9] was 23.78 ± 3.86 ng/mL, the IFN-γ [6, 9] was 113.74 ± 12.59 pg/mL and the IL-4 [6, 9] was 138.64 ± 39.91 pg/mL. For the same compound, the IgE [6, 9] was 41.86 ± 7.34 ng/mL, the LTB4 [6, 9] was 32.00 ± 6.71 ng/mL and the TXB2 [6, 9] was 24.86 ± 4.5 ng/mL. For the same compound, the “contents of TXB2 and TLB4 in nasal lavage solution versus model control group” value ([6]; p<0.05) was “significant difference compared with the model control group”, the “serum IgE content versus model group” value ([6]; significantly different from model group (p<0.05)) was “reduce the serum IgE content” and the “pathological analysis of HE stained nasal mucosa” value [7] was “the inflammatory reaction in nasal mucosa of guinea pigs was significantly reduced”. The “nose scratching times decreased compared with the model group” value [8] was 57.0%, the “sneeze times decreased compared with the model group” value [8] was 54.4% and the “Final scoring of symptom observation” value ([8]; score 1-3 per Table 2) was 1.50 ± 0.50.
